These results are taken from patent publication US20100190723A1, “PREVENTIVE OR THERAPEUTIC COMPOSITION FOR LIVER DISEASE” (priority 2007, published 2010).

Assay [1] deals with Hepatic Disorder Rat Model. Description: Administration test using hepatic disorder rat model (D-galactosamine), intraperitoneal peptide (Test Example 1). The assay is classed as in vivo. The conditions noted are these: peptide 20 mg/kg intraperitoneally 1 hour before, Wistar rats; for GOT: blood GOT level 24 hours after D-galactosamine 800 mg/kg i.p., water control 391; for GPT: blood GPT level 24 hours after D-galactosamine 800 mg/kg i.p., water control 50. How it is done: (§1) Wistar rats (4- to 5-week old) were used for the experiment. Rats were preliminarily fed for a week with purified standard feeds and subjected to fasting for 4 hours. pyroGlu-Leu obtained in Production Example 2 and pyroGlu-Ile obtained in Production Example 3 were each dissolved in water at 10 mg/l ml, and the resulting solutions were administered intraperitoneally in amounts of 20 mg/kg each. D-galactosamine (Sigma) was administered intraperitoneally in an amount of 800 mg/kg 1 hour later. Rats were allowed to freely eat 4 hours after D-galactosamine administration. Each group consisted of 5 rats, and water was administered to the control group instead of the peptide of the present invention.
(§2) Blood was sampled from the rats 24 hours after D-galactosamine administration, and GOT and GPT levels in the blood were assayed to compare the degrees of hepatic disorders.
(§3) GOT and GPT levels were assayed in accordance with the JSCC standardization method (Hiroshi Miura, Japanese Journal of Clinical Medicine (Nippon Rinsho), 53-reprinted-266, 1995).

For assay [2], the system named is Hepatic Disorder Rat Model. Description: Administration test using hepatic disorder rat model (D-galactosamine), oral peptide (Test Example 2). In kind it is in vivo. The conditions noted are these: peptide 40 mg/kg orally, Wistar rats; for GOT: blood GOT level 24 hours after D-galactosamine 800 mg/kg i.p., water control 2180; for GPT: blood GPT level 24 hours after D-galactosamine 800 mg/kg i.p., water control 391. How it is done: as §1, §2, §3
The test was carried out in the same manner as in Test Example 1. pyroGlu-Gln-Gln, pyroGlu-Gln, pyroGlu-Leu, or pyroGlu-Ile obtained in Production Example 5 was dissolved in water at 10 mg/l ml, and the resulting solution was administered orally to rats in amounts of 40 mg/kg.

Square brackets hold non-standard residues; d marks the D form. Ends that are not written are not given here. pGlu = O=C1CC[C@@H](C(=O)O)N1

[pGlu]-Ile: in assay [1], the GOT amounted to 314 IU/L and the GPT came out at 45 IU/L. In assay [2], this substance showed a GOT of 491 IU/L and a GPT of 98 IU/L.

Consider [pGlu]-Leu, for which the GOT in assay [1] is on record as 215 IU/L; in assay [2], 555 IU/L. The GPT is 30 IU/L in assay [1] and 131 IU/L in assay [2].

With [pGlu]-Gln, in assay [2], the GOT worked out at 509 IU/L and the GPT came out at 124 IU/L.

For [pGlu]-Gln-Gln, in assay [2], the GOT was determined as 524 IU/L and the GPT was found to be 100 IU/L.
